# Reference: US6451339B2, “Compositions and methods for improved delivery of hydrophobic agents” (Lipocine, Inc., priority 1999, dated 2002)
# What was measured:
# [1] = value reported by the manufacturer of the commercial product, a rough average, or inventors' judgment; cited from earlier work
# [2] = Surfactant combinations giving clear aqueous dispersions (maximum hydrophobic surfactant, visual optical clarity); settings: for maximum hydrophobic surfactant concentration giving a clear aqueous dispersion: Arlacel 186 - Cremophor RH-40 pair; for effect of added solubilizer on the relative amount of hydrophobic surfactant that can be used: Cremophor RH 40 hydrophilic surfactant, 20% solubilizer; for approximate maximum grams of hydrophobic surfactant per 100 g of hydrophilic surfactant giving acceptable optical clarity: 10× aqueous dispersion, no solubilizer
# [3] = weight percent of solubilizer 0
# [4] = weight percent of solubilizer 20
# [5] = weight percent of solubilizer 50
# [6] = hydrophilic surfactant Cremophor RH40 + 20% Ethanol
# [7] = hydrophilic surfactant Cremophor RH40 + 20% Glycofurol
# [8] = hydrophilic surfactant Cremophor RH40 + 20% PEG-400
# [9] = hydrophilic surfactant Cremophor RH40 + 20% Triacetin
# [10] = hydrophilic surfactant Cremophor RH40, solubilizer (None), reproduced from Table 19
# [11] = hydrophilic surfactant PEG-8 Capric/Caprylic (Labrasol)
# [12] = hydrophilic surfactant PEG-25 Glyceryl trioleate (Tagat TO)
# [13] = hydrophilic surfactant PEG-35 Castor Oil (Incrocas 35)
# [14] = hydrophilic surfactant PEG-40H Castor Oil (Cremophor RH-40)
# [15] = hydrophilic surfactant PEG-60 Corn Oil (Crovol M-70)
# [16] = hydrophilic surfactant Polysorbate 80 (Tween 80)
# [17] = hydrophilic surfactant Polysorbate-20 (Tween 20)
molecule,measurement,setting,value
CC(C)CCC[C@@H](C)[C@H]1CC[C@H]2[C@@H]3CC=C4C[C@@H](O)CC[C@]4(C)[C@H]3CC[C@]12C [Cholesterol],HLB,[1],<10
CCO [Ethanol],maximum hydrophobic surfactant concentration giving a clear aqueous dispersion,[2]; [3],20 g per 100 g of hydrophilic sur
same,maximum hydrophobic surfactant concentration giving a clear aqueous dispersion,[2]; [4],25 g per 100 g of hydrophilic sur
same,maximum hydrophobic surfactant concentration giving a clear aqueous dispersion,[2]; [5],30 g per 100 g of hydrophilic sur
CCCCC/C=C\C/C=C\CCCCCCCC(=O)OCC [Ethyl linoleate],HLB,[1],<10
"CCCCCCCC/C=C\CCCCCCCC(=O)OCC(O)CO (centres unmarked) [Glyceryl monooleate (C18:1), Glyceryl monooleate]",effect of added solubilizer on the relative amount of hydrophobic surfactant that can be used,[2],moderate
same,approximate maximum grams of hydrophobic surfactant per 100 g of hydrophilic surfactant giving a clear aqueous dispersion,[2]; [6],42 g per 100 g of hydrophilic sur
same,approximate maximum grams of hydrophobic surfactant per 100 g of hydrophilic surfactant giving a clear aqueous dispersion,[2]; [7],44 g per 100 g of hydrophilic sur
same,approximate maximum grams of hydrophobic surfactant per 100 g of hydrophilic surfactant giving a clear aqueous dispersion,[2]; [8],40 g per 100 g of hydrophilic sur
same,approximate maximum grams of hydrophobic surfactant per 100 g of hydrophilic surfactant giving a clear aqueous dispersion,[2]; [9],40 g per 100 g of hydrophilic sur
same,approximate maximum grams of hydrophobic surfactant per 100 g of hydrophilic surfactant giving a clear aqueous dispersion,[2]; [10],40 g per 100 g of hydrophilic sur
same,approximate maximum grams of hydrophobic surfactant per 100 g of hydrophilic surfactant giving acceptable optical clarity,[2]; [11],35 g per 100 g of hydrophilic sur
same,approximate maximum grams of hydrophobic surfactant per 100 g of hydrophilic surfactant giving acceptable optical clarity,[2]; [12],10 g per 100 g of hydrophilic sur
same,approximate maximum grams of hydrophobic surfactant per 100 g of hydrophilic surfactant giving acceptable optical clarity,[2]; [13],15 g per 100 g of hydrophilic sur
same,approximate maximum grams of hydrophobic surfactant per 100 g of hydrophilic surfactant giving acceptable optical clarity,[2]; [14],40 g per 100 g of hydrophilic sur
same,approximate maximum grams of hydrophobic surfactant per 100 g of hydrophilic surfactant giving acceptable optical clarity,[2]; [15],10 g per 100 g of hydrophilic sur
same,approximate maximum grams of hydrophobic surfactant per 100 g of hydrophilic surfactant giving acceptable optical clarity,[2]; [16],12 g per 100 g of hydrophilic sur
same,approximate maximum grams of hydrophobic surfactant per 100 g of hydrophilic surfactant giving acceptable optical clarity,[2]; [17],10 g per 100 g of hydrophilic sur
CC(C)=CCC[C@@H](C)[C@H]1CC[C@@]2(C)C3=C(CC[C@]12C)[C@@]1(C)CC[C@H](O)C(C)(C)[C@@H]1CC3 [Ianosterol],HLB,[1],<10
CCCCC/C=C\C/C=C\CCCCCCCC(=O)OC(C)C [Isopropyl linoleate],HLB,[1],<10
CCCCCCCCCCCCCC(=O)OC(C)C [Isopropyl myristate],HLB,[1],<10
CCCCCCCCCCCCOCCOCCOCCOCCO [PEG-4 lauryl ether],approximate maximum grams of hydrophobic surfactant per 100 g of hydrophilic surfactant giving acceptable optical clarity,[2]; [11],90 g per 100 g of hydrophilic sur
same,approximate maximum grams of hydrophobic surfactant per 100 g of hydrophilic surfactant giving acceptable optical clarity,[2]; [12],10 g per 100 g of hydrophilic sur
same,approximate maximum grams of hydrophobic surfactant per 100 g of hydrophilic surfactant giving acceptable optical clarity,[2]; [13],40 g per 100 g of hydrophilic sur
same,approximate maximum grams of hydrophobic surfactant per 100 g of hydrophilic surfactant giving acceptable optical clarity,[2]; [14],45 g per 100 g of hydrophilic sur
same,approximate maximum grams of hydrophobic surfactant per 100 g of hydrophilic surfactant giving acceptable optical clarity,[2]; [16],70 g per 100 g of hydrophilic sur
same,approximate maximum grams of hydrophobic surfactant per 100 g of hydrophilic surfactant giving acceptable optical clarity,[2]; [17],95 g per 100 g of hydrophilic sur
CCCCCCCCCCCCCCCCCC(=O)OCC(CO)(CO)COC(=O)CCCCCCCCCCCCCCCCC [Pentaerythrityl distearate],HLB,[1],>10
CCCCCCCC/C=C\CCCCCCCC(=O)OCC(COC(=O)CCCCCCC/C=C\CCCCCCCC)(COC(=O)CCCCCCC/C=C\CCCCCCCC)COC(=O)CCCCCCC/C=C\CCCCCCCC [Pentaerythrityl tetraoleate],HLB,[1],>10
CC(O)CO (centres unmarked) [Propylene Glycol],maximum hydrophobic surfactant concentration giving a clear aqueous dispersion,[2]; [3],20 g per 100 g of hydrophilic sur
same,maximum hydrophobic surfactant concentration giving a clear aqueous dispersion,[2]; [4],28 g per 100 g of hydrophilic sur
same,maximum hydrophobic surfactant concentration giving a clear aqueous dispersion,[2]; [5],30 g per 100 g of hydrophilic sur
CCCCCCCCCC(=O)OCC(C)OC(=O)CCCCCCCCC (centres unmarked) [Propylene glycol dicaprate],HLB,[1],>6
CC(=O)OCC(COC(C)=O)OC(C)=O [Triacetin],maximum hydrophobic surfactant concentration giving a clear aqueous dispersion,[2]; [3],20 g per 100 g of hydrophilic sur
same,maximum hydrophobic surfactant concentration giving a clear aqueous dispersion,[2]; [4],28 g per 100 g of hydrophilic sur
same,maximum hydrophobic surfactant concentration giving a clear aqueous dispersion,[2]; [5],25 g per 100 g of hydrophilic sur
"Glyceryl mono-, dioleate",approximate maximum grams of hydrophobic surfactant per 100 g of hydrophilic surfactant giving acceptable optical clarity,[2]; [11],25 g per 100 g of hydrophilic sur
same,approximate maximum grams of hydrophobic surfactant per 100 g of hydrophilic surfactant giving acceptable optical clarity,[2]; [12],10 g per 100 g of hydrophilic sur
same,approximate maximum grams of hydrophobic surfactant per 100 g of hydrophilic surfactant giving acceptable optical clarity,[2]; [14],10 g per 100 g of hydrophilic sur
same,approximate maximum grams of hydrophobic surfactant per 100 g of hydrophilic surfactant giving acceptable optical clarity,[2]; [15],10 g per 100 g of hydrophilic sur
PEG-3 oleyl ether,approximate maximum grams of hydrophobic surfactant per 100 g of hydrophilic surfactant giving acceptable optical clarity,[2]; [11],25 g per 100 g of hydrophilic sur
same,approximate maximum grams of hydrophobic surfactant per 100 g of hydrophilic surfactant giving acceptable optical clarity,[2]; [12],10 g per 100 g of hydrophilic sur
same,approximate maximum grams of hydrophobic surfactant per 100 g of hydrophilic surfactant giving acceptable optical clarity,[2]; [13],20 g per 100 g of hydrophilic sur
same,approximate maximum grams of hydrophobic surfactant per 100 g of hydrophilic surfactant giving acceptable optical clarity,[2]; [14],30 g per 100 g of hydrophilic sur
same,approximate maximum grams of hydrophobic surfactant per 100 g of hydrophilic surfactant giving acceptable optical clarity,[2]; [15],20 g per 100 g of hydrophilic sur
same,approximate maximum grams of hydrophobic surfactant per 100 g of hydrophilic surfactant giving acceptable optical clarity,[2]; [16],20 g per 100 g of hydrophilic sur
same,approximate maximum grams of hydrophobic surfactant per 100 g of hydrophilic surfactant giving acceptable optical clarity,[2]; [17],25 g per 100 g of hydrophilic sur
PEG-20 sorbitan monolaurate,approximate maximum grams of hydrophobic surfactant (Arlacel 186) per 100 g of hydrophilic surfactant giving a clear aqueous dispersion,[2]; hydrophobic surfactant Arlacel 186 + 20% Ethanol,25 g per 100 g of hydrophilic sur
same,approximate maximum grams of hydrophobic surfactant (Arlacel 186) per 100 g of hydrophilic surfactant giving a clear aqueous dispersion,[2]; hydrophobic surfactant Arlacel 186 + 20% Triacetin,25 g per 100 g of hydrophilic sur
same,approximate maximum grams of hydrophobic surfactant (Arlacel 186) per 100 g of hydrophilic surfactant giving a clear aqueous dispersion,"[2]; hydrophobic surfactant Arlacel 186, solubilizer (None), from Table 19",20 g per 100 g of hydrophilic sur
PEG-400,maximum hydrophobic surfactant concentration giving a clear aqueous dispersion,[2]; [3],20 g per 100 g of hydrophilic sur
same,maximum hydrophobic surfactant concentration giving a clear aqueous dispersion,[2]; [4],25 g per 100 g of hydrophilic sur
same,maximum hydrophobic surfactant concentration giving a clear aqueous dispersion,[2]; [5],25 g per 100 g of hydrophilic sur
Polyglyceryl-6 dioleate,approximate maximum grams of hydrophobic surfactant per 100 g of hydrophilic surfactant giving acceptable optical clarity,[2]; [11],35 g per 100 g of hydrophilic sur
same,approximate maximum grams of hydrophobic surfactant per 100 g of hydrophilic surfactant giving acceptable optical clarity,[2]; [12],10 g per 100 g of hydrophilic sur
same,approximate maximum grams of hydrophobic surfactant per 100 g of hydrophilic surfactant giving acceptable optical clarity,[2]; [13],10 g per 100 g of hydrophilic sur
same,approximate maximum grams of hydrophobic surfactant per 100 g of hydrophilic surfactant giving acceptable optical clarity,[2]; [14],5 g per 100 g of hydrophilic sur
same,approximate maximum grams of hydrophobic surfactant per 100 g of hydrophilic surfactant giving acceptable optical clarity,[2]; [15],10 g per 100 g of hydrophilic sur
same,approximate maximum grams of hydrophobic surfactant per 100 g of hydrophilic surfactant giving acceptable optical clarity,[2]; [16],10 g per 100 g of hydrophilic sur
same,approximate maximum grams of hydrophobic surfactant per 100 g of hydrophilic surfactant giving acceptable optical clarity,[2]; [17],35 g per 100 g of hydrophilic sur
Sorbitan monolaurate,approximate maximum grams of hydrophobic surfactant per 100 g of hydrophilic surfactant giving a clear aqueous dispersion,[2]; [7],65 g per 100 g of hydrophilic sur
same,approximate maximum grams of hydrophobic surfactant per 100 g of hydrophilic surfactant giving a clear aqueous dispersion,[2]; [9],65 g per 100 g of hydrophilic sur
same,approximate maximum grams of hydrophobic surfactant per 100 g of hydrophilic surfactant giving a clear aqueous dispersion,[2]; [10],20 g per 100 g of hydrophilic sur
same,approximate maximum grams of hydrophobic surfactant per 100 g of hydrophilic surfactant giving acceptable optical clarity,[2]; [11],30 g per 100 g of hydrophilic sur
same,approximate maximum grams of hydrophobic surfactant per 100 g of hydrophilic surfactant giving acceptable optical clarity,[2]; [12],10 g per 100 g of hydrophilic sur
same,approximate maximum grams of hydrophobic surfactant per 100 g of hydrophilic surfactant giving acceptable optical clarity,[2]; [13],30 g per 100 g of hydrophilic sur
same,approximate maximum grams of hydrophobic surfactant per 100 g of hydrophilic surfactant giving acceptable optical clarity,[2]; [14],20 g per 100 g of hydrophilic sur
same,approximate maximum grams of hydrophobic surfactant per 100 g of hydrophilic surfactant giving acceptable optical clarity,[2]; [15],15 g per 100 g of hydrophilic sur
same,approximate maximum grams of hydrophobic surfactant per 100 g of hydrophilic surfactant giving acceptable optical clarity,[2]; [16],10 g per 100 g of hydrophilic sur
same,approximate maximum grams of hydrophobic surfactant per 100 g of hydrophilic surfactant giving acceptable optical clarity,[2]; [17],20 g per 100 g of hydrophilic sur
Sorbitan monooleate,effect of added solubilizer on the relative amount of hydrophobic surfactant that can be used,[2],decreases
same,approximate maximum grams of hydrophobic surfactant per 100 g of hydrophilic surfactant giving a clear aqueous dispersion,[2]; [6],40 g per 100 g of hydrophilic sur
same,approximate maximum grams of hydrophobic surfactant per 100 g of hydrophilic surfactant giving a clear aqueous dispersion,[2]; [7],30 g per 100 g of hydrophilic sur
same,approximate maximum grams of hydrophobic surfactant per 100 g of hydrophilic surfactant giving a clear aqueous dispersion,[2]; [8],25 g per 100 g of hydrophilic sur
same,approximate maximum grams of hydrophobic surfactant per 100 g of hydrophilic surfactant giving a clear aqueous dispersion,[2]; [9],40 g per 100 g of hydrophilic sur
same,approximate maximum grams of hydrophobic surfactant per 100 g of hydrophilic surfactant giving a clear aqueous dispersion,[2]; [10],65 g per 100 g of hydrophilic sur
same,approximate maximum grams of hydrophobic surfactant per 100 g of hydrophilic surfactant giving acceptable optical clarity,[2]; [11],15 g per 100 g of hydrophilic sur
same,approximate maximum grams of hydrophobic surfactant per 100 g of hydrophilic surfactant giving acceptable optical clarity,[2]; [12],10 g per 100 g of hydrophilic sur
same,approximate maximum grams of hydrophobic surfactant per 100 g of hydrophilic surfactant giving acceptable optical clarity,[2]; [13],25 g per 100 g of hydrophilic sur
same,approximate maximum grams of hydrophobic surfactant per 100 g of hydrophilic surfactant giving acceptable optical clarity,[2]; [14],65 g per 100 g of hydrophilic sur
same,approximate maximum grams of hydrophobic surfactant per 100 g of hydrophilic surfactant giving acceptable optical clarity,[2]; [15],20 g per 100 g of hydrophilic sur
same,approximate maximum grams of hydrophobic surfactant per 100 g of hydrophilic surfactant giving acceptable optical clarity,[2]; [16],5 g per 100 g of hydrophilic sur
same,approximate maximum grams of hydrophobic surfactant per 100 g of hydrophilic surfactant giving acceptable optical clarity,[2]; [17],5 g per 100 g of hydrophilic sur
tetrahydrofurfuryl alcohol PEG ether [Glycofurol],maximum hydrophobic surfactant concentration giving a clear aqueous dispersion,[2]; [3],20 g per 100 g of hydrophilic sur
same,maximum hydrophobic surfactant concentration giving a clear aqueous dispersion,[2]; [4],25 g per 100 g of hydrophilic sur
same,maximum hydrophobic surfactant concentration giving a clear aqueous dispersion,[2]; [5],30 g per 100 g of hydrophilic sur
